We go through four compounds from US10800807B2, “TGR5 modulators and methods of use thereof” (Intercept Pharmaceuticals, Inc., priority 2015, dated 2020).

Where a chain is given by its changes, count along the chain named. Values after ≈ are worked out from the molar mass of the structure shown.

In data set [1] the target is T1, human glutathione transferase-tagged FXR-LBD (Homo sapiens, UniProt Q96RI1).
T1 construct: human glutathione transferase-tagged FXR-LBD (Life Technologies, USA); purchased Life Technologies, USA
T1 sequence (Q96RI1 262-486 limits assumed): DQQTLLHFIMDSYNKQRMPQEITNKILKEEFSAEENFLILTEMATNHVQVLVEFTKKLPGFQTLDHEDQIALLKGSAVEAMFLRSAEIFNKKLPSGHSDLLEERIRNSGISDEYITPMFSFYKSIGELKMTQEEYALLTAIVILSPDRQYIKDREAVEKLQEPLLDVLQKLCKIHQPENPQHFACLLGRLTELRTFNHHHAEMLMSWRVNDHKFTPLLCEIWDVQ
The experiment in a line: FXR AlphaScreen coactivator recruitment assay (human).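 As to hFXR Efficacy: CDCA at 50 µM taken as 100%.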 Conditions: for EC50: human FXR-LBD, AlphaScreen, read-out: hFXR EC50; for Emax: read-out: hFXR Efficacy. The arrangement: Emax: dose or concentration left out as unconfirmed. It counts as biochemical.

The nature of data set [2]: Lipophilicity, 1-octanol/water partition coefficient (shake-flask). Format: physicochemical. The conditions noted are these: pH 8.00, ionized BA. Here is the method: The experiments were carried out on 1 mM initial bile salt solution buffered at pH 8.00 with 0.1 M potassium phosphate buffer to ensure complete ionization of the BA. BA concentration in the water phase before and after partition in 1-octanol was measured by HPLC-ESMS/MS as reported below.

Data set [3] is described as follows: Critical micellar concentration (surface tension / dye solubilization). Format: physicochemical.
For data set [4], the target named is T2, TGR5 (Homo sapiens, UniProt Q8TDU6).
T2 sequence (Q8TDU6 1-330): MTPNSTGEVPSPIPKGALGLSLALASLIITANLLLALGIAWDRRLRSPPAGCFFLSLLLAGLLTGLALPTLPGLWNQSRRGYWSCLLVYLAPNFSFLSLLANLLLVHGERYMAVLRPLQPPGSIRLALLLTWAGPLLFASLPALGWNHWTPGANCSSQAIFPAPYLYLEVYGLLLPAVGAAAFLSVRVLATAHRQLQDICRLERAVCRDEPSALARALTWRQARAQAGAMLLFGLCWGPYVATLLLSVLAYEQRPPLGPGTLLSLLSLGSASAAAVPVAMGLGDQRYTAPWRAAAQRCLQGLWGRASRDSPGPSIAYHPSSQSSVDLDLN
The experiment in a line: TGR5 activity: cAMP in hTGR5 CHO-k1 cells. It counts as cell-based. Also noted: expressed in transfected cells; host or cells: CHO-k1. Conditions: hTGR5 CHO cells; for Emax: 0.5 h, Ref. LCA 100% at 10 μM, read-out: hTGR5 CHO Efficacy; for EC50: cAMP.

In the next data set the target is bovine serum albumin (Bos taurus, UniProt P02769). Nature of the data set: Albumin binding by equilibrium dialysis. It counts as in vitro ADME. Conditions: 5% bovine serum albumin saline solution, 25° C. Here is the method: BA was dissolved at a concentration of […] in 5% bovine serum albumin saline solution and left to stand for 24 hours at 25° C. Two milliliters of this solution was dialyzed in cellulose sacs with a molecular weight cut-off of 12-14 kDa (Spectra/Por; Spectrum Medical Industries Inc., Rancho Dominguez, Calif.) against 25 ml of saline solution. The system was equilibrated by mechanical shaking for 72 hours at 25° C. BA concentrations in the starting solution and in the dialyzed solution were determined by HPLC-ES-MS/MS as reported below.

A further data set has as its target T3, mTGR5 (Mus musculus, UniProt Q80SS6).
T3 construct: expressed in transfected cells; host or cells: CHO-Pi10 clone 4
T3 sequence (Q80SS6 1-329): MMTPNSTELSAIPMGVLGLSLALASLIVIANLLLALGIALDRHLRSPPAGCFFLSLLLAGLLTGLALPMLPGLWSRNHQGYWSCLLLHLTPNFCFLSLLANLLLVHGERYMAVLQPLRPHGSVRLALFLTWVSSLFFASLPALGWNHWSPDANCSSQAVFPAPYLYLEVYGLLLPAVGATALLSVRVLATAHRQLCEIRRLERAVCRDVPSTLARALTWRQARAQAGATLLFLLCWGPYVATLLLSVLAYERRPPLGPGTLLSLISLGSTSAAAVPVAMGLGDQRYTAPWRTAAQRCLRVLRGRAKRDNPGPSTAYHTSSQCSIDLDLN
Nature of the data set: TGR5 activity: cAMP in mTGR5 CHO-Pi10 clone 4 cells. Format: cell-based. The conditions noted are these: mTGR5 CHO cells, value in parentheses; for Emax: 0.5 h, read-out: (mTGR5 CHO) Efficacy.

The target in data set [5] is T2, TGR5. The experiment in a line: TGR5 activity: intracellular cAMP levels, NCI-H716 cells (HTR-FRET). It counts as cell-based. Also noted: endogenous in cells; host or cells: NCI-H716. The conditions noted are these: NCI-H716 cells; for Emax: 1 h, Ref. LCA 100% at 10 μM, read-out: TGR5 (NCI-H716) Efficacy; for EC50: cAMP. On the procedure: Activation of TGR5 was assessed by measuring the level of cAMP using an HTR-FRET assay. Thus, NCI-H716 cells were cultured on 96-well plates coated with Matrigel (Corning, USA) (0.75 mg/ml) in DMEM supplemented with 10% FCS, 100 units/ml penicillin, and 100 μg/ml streptomycin sulphate. […] The level of intracellular cAMP was determined with Lance kit. Z′ factor was used to validate assays.
For orientation: Changes in cAMP serve as a functional read-out for many G protein-coupled receptors.

A short description of a further data set: Water solubility. It counts as physicochemical. Conditions: simulated gastric fluid, thermodynamic from solid, 0.1 M HCl, pH 1.00, 25° C., read-out: Ws. Here is the method: BA were suspended in 100 ml of 0.1 M HCl, pH 1.00, and the saturated solutions were transferred to a thermostat-equipped water bath maintained at 25° C. After incubation for 1 week, the solutions were filtered on a Millipore filter ([…]), and the concentration of BA was measured by HPLC-ESMS/MS as reported below.

The target of data set [6] is T4, mouse glutathione transferase-tagged FXR-LBD (Mus musculus, UniProt Q60641).
T4 construct: mouse glutathione transferase-tagged FXR-LBD (generated in-house); made in house
T4 sequence (Q60641 264-488 limits assumed): T1 sequence (Q96RI1 262-486 limits assumed) with H7D, F8Y, N46S, V50I, S95A, S98A, N107K, I125V, I174M, H175Y
Nature of the data set: FXR AlphaScreen coactivator recruitment assay (mouse). Format: biochemical. Conditions: mouse FXR-LBD, value in parentheses; for EC50: read-out: (mFXR) EC50; for Emax: read-out: (mFXR) Efficacy. On the technique in general: Alpha assays give light when donor and acceptor beads are brought close together.

The nature of data set [7]: Critical micellar concentration (surface tension / dye solubilization). It counts as physicochemical. The conditions noted are these: BA sodium salts in 0.1 M NaCl, 25° C. On the procedure:
In the first method, the surface tension was performed by maximum bubble-pressure method using a Sensadyne 6000 tensiometer (Chem-Dyne Research Corp., Milwaukee, Wis.). The surface tension of aqueous solutions at various concentrations (range 0.1-100 mM) of the BA sodium salts in 0.1 M NaCl was measured at 25° C. The surface tension values were plotted against the logarithm of the bile salt concentration; the regression lines corresponding to the two parts of the curve (monomeric and micellar phases) were calculated using the method of least squares. The critical micellar concentration (CMC) value (mM) was obtained by the intersection of the two lines.
The second method is based on the fact that some dyes, specifically Orange OT ([…]), are almost insoluble in water but dissolve in solutions with micellar aggregates that incorporate them; thus, the intensity of color of the solution increases with bile salt concentration (after CMC achievement). The amount of dye solubilized in relation to bile salt concentration was determined spectrophotometrically.
For each bile acid, various solution at different concentrations, between 50 mM and 0.1 mM with appropriate dilutions, were incubated under stirring at room temperature for 3 days with an excess of Orange OT. Then all the solutions were centrifuged and filtered through a 0.22 μm Millipore fiiter (Millipore Corp., Bedford, Mass.).

Sequence of bovine serum albumin (P02769 25-607): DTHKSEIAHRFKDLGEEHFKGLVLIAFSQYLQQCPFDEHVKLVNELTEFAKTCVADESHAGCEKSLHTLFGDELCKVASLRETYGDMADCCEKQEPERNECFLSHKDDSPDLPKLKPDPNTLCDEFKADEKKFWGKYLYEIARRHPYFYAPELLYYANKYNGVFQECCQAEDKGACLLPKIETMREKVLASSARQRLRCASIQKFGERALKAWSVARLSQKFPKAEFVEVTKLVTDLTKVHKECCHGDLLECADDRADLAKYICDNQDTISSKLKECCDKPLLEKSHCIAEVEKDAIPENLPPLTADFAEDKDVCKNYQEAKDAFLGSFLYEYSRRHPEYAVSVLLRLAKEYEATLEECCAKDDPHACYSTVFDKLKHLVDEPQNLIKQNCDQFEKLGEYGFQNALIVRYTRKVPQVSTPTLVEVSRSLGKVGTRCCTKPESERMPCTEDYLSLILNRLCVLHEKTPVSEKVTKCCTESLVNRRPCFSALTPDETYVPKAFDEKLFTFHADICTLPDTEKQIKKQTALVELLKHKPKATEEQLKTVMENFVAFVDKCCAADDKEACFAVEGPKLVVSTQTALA

Regarding `CC[C@H]1[C@@H](O)[C@@H]2[C@H](C[C@H](O)[C@]3(C)[C@@H]([C@H](C)C[C@@H](F)C(=O)O)CC[C@@H]23)[C@@]2(C)CC[C@@H](O)C[C@@H]12` [Compound 9, 3α,7α,12α-Trihydroxy-6α-ethyl-23(R)-fluoro-5β-cholan-24-oate], the EC50 was found to be 2.9 ± 0.9 µM in data set [1]; 1.4 ± 0.3 µM at TGR5 [4]; 1.8 µM at mTGR5; 22 ± 3 µM at TGR5 [5]; 55 µM in data set [6]. The Emax in data set [1] was 147 ± 20%; at TGR5 [4], 98 ± 2%; at mTGR5, 90%; on TGR5 [5], 75 ± 6%; in data set [6] it was 127%. In addition, the pKa in “pKa” is 2.82. Further, the “LogPA−” value in data set [2] amounted to 0.2. Further, the CMpH in [3] worked out at 3.9. Moreover, the “Albumin binding (%)” value at bovine serum albumin was 89%. Further, the solubility thermodynamic at 1 week in “Water solubility” was 469 µM (≈ 213 µg/mL). Further, the CMC in data set [7] is recorded as 6 mM.
Consider `CC[C@H]1[C@@H](O)C2C3CC[C@H]([C@H](C)CC(F)(F)C(=O)O)[C@@]3(C)CCC2[C@@]2(C)CC[C@@H](O)C[C@@H]12` (stereo partly drawn) [Compound 10, 3α,7α-Dihydroxy-6α-ethyl-23,23-gemdifluoro-5β-cholan-24-oic acid], for which the EC50 in data set [1] came to 0.2 ± 0.04 µM; on TGR5 [4] it was 0.34 ± 0.04 µM; at mTGR5, 0.6 µM; on TGR5 [5], 1.6 ± 0.2 µM; in data set [6], 7.1 µM. The Emax in data set [1] came out at 128 ± 4%; at TGR5 [4], 103 ± 1%; on mTGR5, 102%; at TGR5 [5], 125 ± 1%; in data set [6] it was 143%. For the same compound, the pKa in the data set “pKa” is 1.1. Moreover, the “LogPA−” value in data set [2] was 1.4. In [3], this compound returned a CMpH of 3.7. On bovine serum albumin, the “Albumin binding (%)” value came to 66%. For the same compound, the solubility thermodynamic at 1 week in the data set “Water solubility” was 16 µM (≈ 7.31 µg/mL). Also, the CMC in data set [7] stood at 8.5 mM.
`CC[C@H]1[C@@H](O)C2C3CC[C@H]([C@H](C)CCc4noc(=O)[nH]4)[C@@]3(C)[C@@H](O)CC2[C@@]2(C)CC[C@@H](O)C[C@@H]12` (stereo partly drawn) [Compound 11, 3α,7α,12α-trihydroxy-6α-ethyl-24-nor-5β-23([1,2,4]-oxadiazole-3-one-5yl)-cholane]: the EC50 in data set [1] was found to be 1 µM; on TGR5 [4], 2.7 ± 1.8 µM; on mTGR5, 1.4 µM; at TGR5 [5] it was 2 µM; in data set [6], 7.7 µM. Besides, the Emax came out at 140% in data set [1]; 96 ± 19% on TGR5 [4]; 108% on mTGR5; 105% at TGR5 [5]; 100% in data set [6]. For the same compound, in the data set “pKa”, the pKa was found to be 5.94. The “LogPA−” value in data set [2] is reported as 1.6. Moreover, in [3], the CMpH is recorded as 7.0. The “Albumin binding (%)” value at bovine serum albumin amounted to 84%. Besides, the solubility thermodynamic at 1 week in the data set “Water solubility” is 392 µM (≈ 187 µg/mL). For the same compound, the CMC in [7] is 5 mM.
In the case of `CC[C@H]1[C@@H](O)C2C3CC[C@H]([C@H](C)CCc4nn[nH]n4)[C@@]3(C)[C@@H](O)CC2[C@@]2(C)CC[C@@H](O)C[C@@H]12` (stereo partly drawn) [Compound 12, 3α,7α,12α-Trihydroxy-6α-ethyl-23-(tetrazol-5-yl)-24-nor-5β-cholane], the EC50 amounted to 1.7 ± 0.6 µM in data set [1]; 0.71 ± 0.08 µM at TGR5 [4]; 0.84 µM on mTGR5; 4 µM at TGR5 [5]; 12.7 µM in data set [6]. The Emax in data set [1] is 125 ± 15%; on TGR5 [4], 101 ± 1.4%; on mTGR5, 105%; at TGR5 [5], 104%; in [6] it was 93%. The same compound returned a pKa in “pKa” of 5.59. Moreover, the “LogPA−” value in [2] was determined as 1.5. The CMpH in data set [3] is 6.6. Further, the “Albumin binding (%)” value on bovine serum albumin is 83%. The solubility thermodynamic at 1 week in “Water solubility” is 517 µM (≈ 238 µg/mL). Also, in [7], the CMC turned out to be 5 mM.

The EC50 is the midpoint of the concentration-response curve. One may read the pKa as the pH at which an ionisable group is half protonated.
